Reference: US10813935B2, “Methods and compositions for treating drug resistance in cancer” (UNIVERSITY OF SOUTH FLORIDA, priority 2017, dated 2020)

Legend:
H1650 cells = test: Development of lapatinib resistance in parental H1650 cells, bright field microscopy; type: cell-based, human; conditions: drugs added at plating, 72 hours
Description: Drug-resistant cells (DR) were compared to parental cell lines. 500,000 H1650 cells were plated in 1 well of a 6-well plate and treated with the indicated drugs at the time of plating. They were allowed to grow for 72 hours.

p-EGFR = test: Western blot of whole cell lysates (cleaved EGFR, p-EGFR, CYP51A1) after drug treatment; type: cell-based, human; conditions: treated 48 hours
Description: Cells were treated with lapatinib or ketoconazole for 48 hours. The expression of cleaved EGFR, p-EGFR, CYP51A1 were examined using western blotting of the whole cell lysates. β-Actin was included as a loading control.

[1] = test system: H1975, H1650 and H1299 human lung cancer cell lines (parental and drug resistant); test: Drug sensitivity in parental and DR cell lines, Cell Titer Glo cell viability; type: cell-based
Description: To investigate drug resistance to EGFR TKIs, we developed lapatinib resistant human lung cancer cell lines as model for de novo drug resistance. To derive drug resistant (DR) cells, H1975 human lung cancer cells, that carry L858R and T790M point mutations in exons 20 and 21 of EGFR, were grown in a static concentration of lapatinib for up to 30 days. We also developed EGFR TKI resistant H1650 and H1299 human lung cancer cell lines to confirm any potential findings in cell lines with different EGFR mutations, thereby enhancing the reproducibility and relevance of the work. The drug sensitivity of the parental and DR cells on both the monolayer and the 3D scaffold were determined by testing a panel of standard-of-care chemotherapeutics along with EGFR TKIs. Drug sensitivity in parental- and DR-cell lines were determined. Cells were treated in triplicates with indicated concentrations of the identified drug for 72 hours in monolayer cultures and for 48 hours in scaffold cultures. For cells grown on the scaffold, drugs were added on day 3, as compared to 24 hours for monolayer. Cell viability was determined using Cell Titer Glo assay (Promega). Average luminescence as a percentage of control in lapatinib treated cultures on the monolayer (Blue) and the scaffold (Red) is shown. Experiments were repeated at least two times. […]

SMILES	development of lapatinib resistance in parental H1650 cells (H1650 cells)	p-EGFR in the H1650-DR cells (p-EGFR; H1650-DR cells, western blot)	EGFR downstream signaling (p-EGFR; western blot of whole cell lysates)	resistance of EGFR TKI resistant cells to other anti-cancer agents [1]
CC(=O)N1CCN(c2ccc(OCC3COC(Cn4ccnc4)(c4ccc(Cl)cc4Cl)O3)cc2)CC1 (centres unmarked) [ketoconazole]	alleviated development of lapatinib resistant	inhibited p-EGFR	induced lowering of EGFR downstream signaling	–
Nc1ccn([C@@H]2O[C@H](CO)[C@@H](O)C2(F)F)c(=O)n1 [gemcitabine]	–	–	–	resistant
CC(=O)O[C@H]1C(=O)[C@@]2(C)[C@H]([C@H](OC(=O)c3ccccc3)[C@]3(O)C[C@H](OC(=O)[C@H](O)[C@@H](NC(=O)c4ccccc4)c4ccccc4)C(C)=C1C3(C)C)[C@]1(OC(C)=O)CO[C@@H]1C[C@@H]2O [taxol]	–	–	–	resistant
